Consider six compounds from ChEMBL document CHEMBL1201862, “PubChem BioAssay data set” (2004).

Calls of active or inactive are those of the source. Some results are limits rather than exact numbers.

The nature of assay [1]: luciferase reporter signal suppression in cells – H4 neuroglioma cells, luminescence, dose response (AID 1990). Format: functional, cell-based. (In a reporter assay the amount or activity of a reporter protein is the signal.)
The target of assay [2] is Sphingosine 1-phosphate receptor 1 (Homo sapiens, UniProt P21453). Format: functional.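 Further: Tango beta-arrestin reporter U2OS cells stimulated with S1P near its EC80; inhibitor potency meaning antagonism of receptor activation by the natural agonist.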
Sequence of Sphingosine 1-phosphate receptor 1 (P21453 whole entry): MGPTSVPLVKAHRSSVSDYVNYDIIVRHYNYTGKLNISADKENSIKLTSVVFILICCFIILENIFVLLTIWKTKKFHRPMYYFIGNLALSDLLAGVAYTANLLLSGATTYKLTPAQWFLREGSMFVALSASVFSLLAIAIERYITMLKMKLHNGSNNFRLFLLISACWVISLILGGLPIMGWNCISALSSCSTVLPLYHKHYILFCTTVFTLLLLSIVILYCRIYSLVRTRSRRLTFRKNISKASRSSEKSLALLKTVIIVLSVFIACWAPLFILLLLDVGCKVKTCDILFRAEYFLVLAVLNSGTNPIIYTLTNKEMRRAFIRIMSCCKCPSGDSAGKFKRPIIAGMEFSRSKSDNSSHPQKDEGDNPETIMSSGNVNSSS
The target in assay [3] is G-protein coupled receptor 55 (Homo sapiens, UniProt Q9Y2T6). Put plainly: inhibition of LPI-stimulated GPR55 beta-arrestin translocation – imaging, U2OS, beta-arrestin-GFP, LPI agonist, primary screen (AID 2013).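 Further: antagonist potency measured as reduced agonist-driven arrestin aggregation.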 Format: functional.
Sequence of G-protein coupled receptor 55 (Q9Y2T6 whole entry): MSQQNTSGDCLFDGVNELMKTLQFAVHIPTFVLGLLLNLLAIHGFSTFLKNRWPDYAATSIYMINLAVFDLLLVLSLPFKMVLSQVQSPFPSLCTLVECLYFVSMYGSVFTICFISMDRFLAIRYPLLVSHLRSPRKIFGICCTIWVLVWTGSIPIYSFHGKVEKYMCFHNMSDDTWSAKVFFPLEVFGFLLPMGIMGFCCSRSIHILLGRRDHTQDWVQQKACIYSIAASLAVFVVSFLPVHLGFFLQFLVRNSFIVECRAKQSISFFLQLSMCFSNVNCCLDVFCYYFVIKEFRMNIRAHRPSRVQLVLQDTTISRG
Assay [4] in a line: Luminescence Cell-Based Dose Response HTS to Identify Inhibitors of 5'UTR Stem-Loop Driven Prion Protein mRNA Translation in H4 Neuroglioblastoma Cells. [Related pubchem assays: 1827 (Project Summary), 1813 (Primary HTS)]. It counts as functional.
The nature of assay [5]: alpha-synuclein stem-loop luciferase translation blockers – H4 neuroglioma cells, luminescence, confirmation (AID 1988). Format: functional, cell-based.
In assay [6] the target is T1, Sphingosine 1-phosphate receptor 4 (Homo sapiens, UniProt O95977).
T1 sequence (O95977 whole entry): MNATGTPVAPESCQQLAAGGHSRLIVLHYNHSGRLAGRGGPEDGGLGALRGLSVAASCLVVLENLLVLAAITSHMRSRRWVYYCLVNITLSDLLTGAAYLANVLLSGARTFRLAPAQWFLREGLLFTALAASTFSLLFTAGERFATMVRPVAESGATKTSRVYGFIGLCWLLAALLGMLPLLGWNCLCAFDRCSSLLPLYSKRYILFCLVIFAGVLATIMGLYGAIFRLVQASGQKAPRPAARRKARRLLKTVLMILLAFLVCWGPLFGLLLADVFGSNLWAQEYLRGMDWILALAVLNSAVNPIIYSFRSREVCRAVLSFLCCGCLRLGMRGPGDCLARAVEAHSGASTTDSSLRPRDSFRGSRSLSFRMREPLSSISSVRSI
Put plainly: Fluorescence dose response cell-based high throughput screening assay for antagonists of the Sphingosine 1-Phosphate Receptor 4 (S1P4). [Related pubchem assays: 1524 (Confirmation in triplicates.), 1510 (Primary screen.)]. Format: functional.

For the next assay, the target named is Caspase-7 (Homo sapiens, UniProt P55210). Put plainly: caspase-7 enzyme inhibition, selectivity check – biochemical, DEVD-R110 fluorescence, cherry-pick, selectivity assay for caspase-6 inhibitor project, dose response (AID 743295). It counts as functional.
Sequence of Caspase-7 (P55210 24-198 limits assumed): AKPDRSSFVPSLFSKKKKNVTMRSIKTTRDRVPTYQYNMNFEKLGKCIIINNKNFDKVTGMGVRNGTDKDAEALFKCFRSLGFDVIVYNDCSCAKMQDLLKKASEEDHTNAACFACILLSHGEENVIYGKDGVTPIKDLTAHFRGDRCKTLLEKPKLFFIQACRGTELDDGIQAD
Sequence of Caspase-7 (P55210 207-303 limits assumed): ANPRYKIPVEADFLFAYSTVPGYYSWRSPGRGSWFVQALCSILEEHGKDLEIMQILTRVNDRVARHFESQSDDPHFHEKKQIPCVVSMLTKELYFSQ
The target of assay [7] is T2, Heat shock factor protein 1 (Mus musculus, UniProt P38532).
T2 sequence (P38532 whole entry): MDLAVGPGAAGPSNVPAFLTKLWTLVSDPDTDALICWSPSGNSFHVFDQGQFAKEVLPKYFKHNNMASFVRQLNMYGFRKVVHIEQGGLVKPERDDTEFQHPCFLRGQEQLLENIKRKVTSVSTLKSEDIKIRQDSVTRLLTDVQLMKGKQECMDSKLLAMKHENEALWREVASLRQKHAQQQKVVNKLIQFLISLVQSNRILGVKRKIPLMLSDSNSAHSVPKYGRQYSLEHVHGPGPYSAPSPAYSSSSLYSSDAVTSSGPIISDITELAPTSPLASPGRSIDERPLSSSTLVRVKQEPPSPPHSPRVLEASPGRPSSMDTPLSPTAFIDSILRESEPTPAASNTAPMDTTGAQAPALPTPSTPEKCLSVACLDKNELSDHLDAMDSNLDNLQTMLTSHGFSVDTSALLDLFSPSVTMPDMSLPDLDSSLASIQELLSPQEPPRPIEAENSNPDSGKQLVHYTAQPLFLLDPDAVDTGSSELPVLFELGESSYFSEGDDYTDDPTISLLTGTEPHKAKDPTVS
The assay is described as follows: enhancement of HSF1-driven luciferase signal – cell-based, NIH3T3, luminescence, dose retest, confirmation (AID 435004).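 Further: stress induced by proteasome inhibitor MG132 added 30 min after compound; luciferase reporter driven by HSF1 response element in NIH3T3 cells; actives raise luminescence as potentiators of the MG132 stress response.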 It counts as functional.

In another assay the target is T3, Hexokinase HKDC1 (Homo sapiens, UniProt Q2TB90).
T3 sequence (Q2TB90 whole entry): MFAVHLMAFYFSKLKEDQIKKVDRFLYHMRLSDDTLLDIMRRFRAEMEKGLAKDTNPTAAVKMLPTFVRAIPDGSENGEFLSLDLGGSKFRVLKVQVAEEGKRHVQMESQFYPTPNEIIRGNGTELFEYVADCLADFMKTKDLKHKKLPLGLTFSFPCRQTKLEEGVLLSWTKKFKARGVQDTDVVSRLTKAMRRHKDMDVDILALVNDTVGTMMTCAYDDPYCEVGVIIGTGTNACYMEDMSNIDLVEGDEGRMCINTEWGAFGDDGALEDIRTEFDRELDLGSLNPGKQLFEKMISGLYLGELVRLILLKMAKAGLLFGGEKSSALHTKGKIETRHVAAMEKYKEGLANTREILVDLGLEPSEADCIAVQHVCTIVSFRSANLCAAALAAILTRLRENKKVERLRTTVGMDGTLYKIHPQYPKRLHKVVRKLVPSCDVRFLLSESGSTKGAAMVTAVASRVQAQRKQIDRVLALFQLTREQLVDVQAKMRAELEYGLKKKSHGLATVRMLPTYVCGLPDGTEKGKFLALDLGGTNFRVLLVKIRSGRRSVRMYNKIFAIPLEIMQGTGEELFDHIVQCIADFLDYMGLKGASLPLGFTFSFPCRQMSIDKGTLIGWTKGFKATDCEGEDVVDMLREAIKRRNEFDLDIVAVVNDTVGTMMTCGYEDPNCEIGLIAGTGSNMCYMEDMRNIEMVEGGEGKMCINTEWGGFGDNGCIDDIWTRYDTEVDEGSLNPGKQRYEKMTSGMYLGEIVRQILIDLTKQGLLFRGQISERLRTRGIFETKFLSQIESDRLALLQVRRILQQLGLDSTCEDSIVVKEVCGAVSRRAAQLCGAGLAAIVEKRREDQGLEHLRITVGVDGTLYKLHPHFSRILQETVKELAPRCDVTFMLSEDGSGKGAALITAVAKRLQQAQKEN
The assay is described as follows: activation of HKDC1 glucose phosphorylation – biochemical, W721R variant, dose response (AID 504730). Format: functional.

Assay [8] is described as follows: cells. It counts as functional, cell-based.
Assay [9] is described as follows: reduction of Shn3 3'UTR-driven luciferase in osteoblasts – cell-based, Clone20 osteoblasts, firefly luciferase, cherry-picked, dose response (AID 624132).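 Further: firefly luciferase luminescence from reporter carrying the Shn3 3'UTR in osteoblasts.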 It counts as functional.
Assay [10] can be described thus: cells. It counts as functional, cell-based. The source holds these as a separate data set.
A further assay deals with Jurkat. The assay is described as follows: SAR Analysis of small molecule inhibitors of T-cell specific antigen receptor-induced NF-kB activation in a Jurkat cell line using a luminescence assay - Set 2. [Related pubchem assays (depositor defined):AID435003, AID435012, AID465]. Format: functional, cell-based. Particulars: Homo sapiens.
Assay [11] can be described thus: HepG2 cell cytotoxicity, dose response, cytotoxicity control for non-replicating M. tuberculosis project (AID 489018). It counts as functional. Particulars: Mycobacterium tuberculosis.
Assay [12] is described as follows: THP-1 cell cytotoxicity, dose response, cytotoxicity control for non-replicating M. tuberculosis project (AID 489025). Format: functional.

As usually defined, the EC50 is the concentration needed to bring the measured effect to its halfway point. The term IC50 denotes the concentration that inhibits the measured activity by half. Turning to `Cn1nc(-c2ccc(Cl)cc2)nc2c(=O)n(C)c(=O)nc1-2`, the EC50 is 5.59 µM (inconclusive) in assay [1], > 120 µM (not active) in assay [4] and 4.07 µM (active) in assay [5]. Moreover, the IC50 in [2] was 2.34 µM (active); in [3], 7.35 µM (active); in [6], 0.396 µM (active).
By AC50 is commonly meant the concentration at which the activity in the assay is half-maximal. Take `NS(=O)(=O)c1ccc(NC(=O)COC(=O)c2ccc([N+](=O)[O-])s2)cc1`: the AC50 on Caspase-7 is > 22 µM (inactive).
Take `CCCCNc1cc(NC(C)=O)cc2cc(OC)c(OC)cc12`: the EC50 in assay [7] is > 260 µM (inactive).
As for `SC1=Nc2ccccc2C1`, the EC50 at Hexokinase HKDC1 is 18 µM (active).
Take `COc1ccc(C(NC(=O)C(C)C)c2ccc3cccnc3c2O)cc1` (stereo not given): the EC50 in the assay “cells [8]” was > 350 µM (not active); in the assay “cells [10]”, 5.77 µM (active). Besides, the AC50 in assay [9] is 1.35 µM (active). In the assay on Jurkat, the IC50 was 2.38 µM (active).
For orientation: CC50 means the concentration at which the toxic effect on the cells reaches its halfway point. As for `O=C(Cc1ccc([N+](=O)[O-])cc1)N/N=C/c1ccc([N+](=O)[O-])o1`, the CC50 in assay [11] is 7.53 µM (active); in assay [12] it was 6.26 µM (active).
